According to patent US5458889A (priority 1986, dated 1995):
Where two headings read alike, the source gives them in different places.

Key:
Type in all cases: cell-based
spermatozoa [1] = assay: total spermicidal test of IPPF (death of all spermatozoa of 0.2 ml sperm in less than 5 seconds); conditions: for MIC: 5 seconds
Description: The MIC of a chemical compound depends on this compound, but also on the conditions in which it is used, i.e. on the galenical form including the composition.
(§1) The test is carried out on at least 6 sperms from various donors, satisfying the following minimal conditions from IPPF:
age of the sample: two hours;
[…] : 50 million spermatozoa;
mobility: 50% of the spermatozoa should move forward fastly when examined at 35°-37° C. in a recent sample;
viscosity: ejaculum conveniently liquefied, not filaceous and homogeneous-looking with the naked eye;
collected in sterile glass tubes hermetically closed, preserved at 37° C.
The MIC of various known spermicidal compounds were determined with the IPPF test. The following results have been obtained by 1 milliliter of composition reacting with 0.2 milliliter of sperm and by determining the minimal concentration of the spermicidal compounds that induces the death of all the spermatozoa in 5 seconds, and this with 6 sperms from various donors.
The same total spermicidal test of IPPF was carried out with 1 milliliter of composition already containing 0.0001% (in weight) of fluoride anion F^- reacting upon 0.2 milliliter of sperm, by determining the minimal concentration of the spermicidal compounds that induces the death of all the spermatozoa in 5 seconds, and this with 6 sperms from various donors.
This test consists in realizing a test identical to tests N^.
Under the same conditions previously described (Tests N^. 1 to 3), various perfluorinated benzalkonium chlorides were used as basic spermicidal compounds. It was thus shown that perfluorinated benzalkonium chlorides have a spermicide activity similar to the one of the mere benzalkonium chloride. Besides, this activity remains identical to itself under the conditions of test N^.
Test N^. 2 was also realized on perfluorinated benzalkonium chloride mixed with another chemical compound capable of emitting ion F^-.

poliomyelitis virus = conditions: LiF, where present, 1 mg/l
cells [2] = assay: Cell toxicity (Test 16); conditions: cytomegalo virus section
From the text: The following results were obtained:

cells [3] = assay: Study of threshold of cytotoxicity (LDO)
spermatozoa [4] = assay: IPPF spermicidal test on galenical preparations after in vitro simulation of in vivo conditions; conditions: Test 5, without activating ingredient
spermatozoa [5] = assay: as above; conditions: Test 6, form originally containing 0.45% F^-
Description: as §1
This test in vitro was conducted on galenical preparations including benzalkonium chloride as basic active ingredient, by determining the MIC of this benzalkonium chloride after simulation in vitro of the actual conditions in vivo (extraction, solubilization . . . ).
The percentages correspond to the proportions (in weight) of benzalkonium chloride in the solution used in vitro for the spermicidal test according to IPPF and obtained after simulation, the proportions being measured by titrating using a sample taken off from the solution.
The same conditions as during the comparative test N^. 5 were used, but from galenical forms each originally containing 0.45% (in weight) of fluoride anion F^-.

[6] = final concentration 20 mg/l, contact time 180 min
[7] = final concentration 50 mg/l, contact time 180 min
[8] = final concentration 100 mg/l, contact time 30 min
[9] = final concentration 100 mg/l, contact time 60 min
[10] = final concentration 100 mg/l, contact time 120 min
[11] = final concentration 100 mg/l, contact time 180 min
[12] = Test 1, without F^-, 6 sperms from various donors
[13] = Test 2, composition already containing 0.0001% (in weight) fluoride anion F^-, 6 sperms

| Molecule | Viral titre (poliomyelitis virus; [6]) [PFU/ml] | Viral titre (poliomyelitis virus; [7]) [PFU/ml] | Viral titre (poliomyelitis virus; [8]) [PFU/ml] | Viral titre (poliomyelitis virus; [9]) [PFU/ml] | Viral titre (poliomyelitis virus; [10]) [PFU/ml] | Viral titre (poliomyelitis virus; [11]) [PFU/ml] | MIC (spermatozoa [1]; [12]) [% in weight] | MIC (spermatozoa [1]; [13]) [% in weight] | Cell Toxicity (cells [2]) [%] | threshold of cytotoxicity (LDO) (cells [3]; after filtration) [%] | threshold of cytotoxicity (LDO) (cells [3]; before filtration) [%] | also measured |
| --- | --- | --- | --- | --- | --- | --- | --- | --- | --- | --- | --- | --- |
| F [fluoride anion F^-] | – | – | – | – | – | – | – | – | – | – | – | spermicide activity (spermatozoa [1]; IPPF test, at a titer of 5 ppm (5 milligrams per liter), 0.0833333 min): 100%; spermicidal effect in presence of sodium borate (spermatozoa [1]; Test 3, sodium borate to complex ion F^-): totally disappeared; total spermicide activity according to the IPPF test (spermatozoa [1]; solution containing 0.0001% fluoride anion F^- alone): do not have a total spermicide activity |
| Benzalkonium chloride | 0 | 0 | 0 | 0 | 0 | 0 | 0.006 | 0.002 | 0.05 | 0.01 | 0.05 | Viral titre (poliomyelitis virus; final concentration 10 mg/l, contact time 180 min): ≈ 0 PFU/ml; total spermicide activity according to the IPPF test (spermatozoa [1]; solution containing 0.003% benzalkonium chloride alone): do not have a total spermicide activity; MIC of benzalkonium chloride (spermatozoa [4]; galenical form: cream): 0.0083 % in weight; MIC of benzalkonium chloride (spermatozoa [4]; galenical form: gel): 0.0080 % in weight; MIC of benzalkonium chloride (spermatozoa [4]; galenical form: ovule): 0.0063 % in weight; MIC of benzalkonium chloride (spermatozoa [4]; galenical form: soluble waffle): 0.0080 % in weight; MIC of benzalkonium chloride (spermatozoa [4]; galenical form: tablet): 0.0095 % in weight; MIC of benzalkonium chloride (spermatozoa [4]; galenical form: tampon): 0.0075 % in weight; MIC of benzalkonium chloride (spermatozoa [5]; galenical form: cream): 0.0030 % in weight; MIC of benzalkonium chloride (spermatozoa [5]; galenical form: gel): 0.0033 % in weight; MIC of benzalkonium chloride (spermatozoa [5]; galenical form: ovule): 0.0023 % in weight; MIC of benzalkonium chloride (spermatozoa [5]; galenical form: soluble waffle): 0.0017 % in weight; MIC of benzalkonium chloride (spermatozoa [5]; galenical form: tablet): 0.0025 % in weight; MIC of benzalkonium chloride (spermatozoa [5]; galenical form: tampon): 0.0025 % in weight |
| Benzalkonium fluoride | 0 | 0 | 0 | 0 | 0 | 0 | – | – | 0.05 | 0.005 | 0.01 | Viral titre (poliomyelitis virus; final concentration 50 mg/l, contact time 120 min): 0 PFU/ml |
| nonoxynol 9 | – | – | – | – | – | – | 0.006 | 0.003 | – | – | – | – |
| p-menthanylphenylpolyoxyethylene ether | – | – | – | – | – | – | 0.006 | 0.003 | – | – | – | – |
